The values that follow come from US5578608A, “Symmetrical diaryl and diheteroanyl cis epoxy alkanes antiviral compounds” (Eli Lilly and Company, priority 1995, dated 1996).

For the experiment, the target named is T1, HIV-1 protease (Human immunodeficiency virus type 1 group M subtype B, UniProt P04585).
T1 construct: made in house; host or cells: E. coli K12 L507/pHP10D (NRRL B-18560)
The experiment is described as follows: biochemical. How it is done:
A culture of E. coli K12 L507/pHP10D was grown to mid-log phase at 32° C. in LB media containing 12.5 μg/ml tetracycline. The cultivation temperature was quickly elevated to 40° C. to induce gene expression, and the cells were allowed to grow for 2.5 hours at this temperature before the culture was quickly chilled on ice. The cells were centrifuged and the cell pellet was resuspended in 20 mL 50 mmol MES buffer (pH 6.0) containing 1 mmol EDTA, 1 mmol DTT, 1 mmol PMSF and 10% glycerol ("Buffer A"). Cells were lysed by sonication using a Fischer Model 300 Dismembrator and a microtip probe. Following centrifugation at 27,000 x g, the supernatant was diluted to a total volume of 60 mL with Buffer A and loaded onto a 2.0×19 cm QAE-Sepharose column (1 mL/min, 4° C.), that had been equilibrated in Buffer A. The column was washed isocratically for 180 min and then eluted with a gradient eluent of 0-1.0M NaCl in Buffer A over 120 min. Enzymatic activity was measured by HPLC using the synthetic peptide SQNYPIV as described in Margolin et al., Biochem. Biophys. Res. Commun., […], 554-560 (1990); the production of the p1 peptide (SQNY) was measured.
N^a -Biotin-[…]N^e -FITC)-OH SEQ ID NO: 1
The following buffers and solutions are used in the Fluorescence HIV-1 Protease Inhibitor Assay:
To each well of a round bottom, 96-well plate is added 20 μL of the Enzyme Solution followed by 10 μL of the compound to be evaluated in a 20% aqueous dimethylsulfoxide solution. Purified HIV-1 protease was obtained as described above. The resulting solution is incubated for one hour at room temperature and then 20 μL of a solution containing the substrate, N^a -Biotin-[…]N^e-FITC)-OH, in MES-ALB buffer ([…]) is added to each well. The solutions are then incubated for 16 hours at room temperature and then each well is diluted with 150 μL of MES-ALB buffer.
To each well of a second round bottom, 96-well Pandex plate is added 25 uL of the Avidin Coated Beads Solution. Then, to each well is added 25 μL of the diluted incubation solutions, prepared above. The solutions are mixed thoroughly and the plates are loaded into a Pandex® machine, washed, evacuated and read. Sample detection was performed by excitation at 485 nm, reading the resulting epifluorescence at 535 nm.

Setting [1] is: read-out: Fluorescence Assay average IC50 (marked *) (converted).
Setting [2] is: read-out: Fluorescence Assay IC50 (converted).

The IC50 is the concentration needed to halve the response being measured. As a reminder, the inhibition is how much of the control response was suppressed.

Read-outs that look alike come from different tables or passages of the source.

For the compound `CC(C)[C@H](NC(=O)OCc1ccccc1)C(=O)N[C@@H](Cc1ccccc1)[C@@H]1O[C@@H]1[C@H](Cc1ccccc1)NC(=O)[C@@H](NC(=O)OCc1ccccc1)C(C)C` [Example 1, 1,6-Diphenyl-2(S),5(S)-di[N-[2(S)-N(benzyloxycarbonyl)amino-3-methyl-butanoyl]amino]-3,4-cis-epoxyhexane], under setting [1], the IC50 was 212 nM. On to `CC[C@H](NC(=O)OCc1ccccc1)C(=O)N[C@@H](Cc1ccccc1)[C@@H]1O[C@@H]1[C@H](Cc1ccccc1)NC(=O)[C@H](CC)NC(=O)OCc1ccccc1` [Example 2, 1,6-Diphenyl-2(S),5(S)-di[N-[2(S)-N(benzyloxycarbonyl)aminobutanoyl]amino]-3,4-cis-epoxyhexane], for which, under setting [2], the 50% inhibitory concentration (IC50) is 14.4 nM. Consider `N#CC[C@H](NC(=O)c1ccc2ccccc2n1)C(=O)N[C@@H](Cc1ccccc1)[C@@H]1O[C@@H]1[C@H](Cc1ccccc1)NC(=O)[C@H](CC#N)NC(=O)c1ccc2ccccc2n1` [Example 3, 1,6-Diphenyl-2(S),5(S)-di[N-[2(S)-N(quinolin-2-ylcarbonyl)amino-3-cyanopropanoyl]amino]-3,4-cis-epoxyhexane], for which the IC50 under setting [2] is 5350 nM.

As to `CC(C)[C@H](NC(=O)OCc1ccc2ccccc2n1)C(=O)N[C@@H](Cc1ccccc1)[C@@H]1O[C@@H]1[C@H](Cc1ccccc1)NC(=O)[C@@H](NC(=O)OCc1ccc2ccccc2n1)C(C)C` [Example 4, 1,6-Diphenyl-2(S),5(S)-di[N-[2(S)-N[(quinolin-2-ylmethoxy)carbonyl]amino-3-methylbutanoyl]amino]-3,4-cis-epoxyhexane], the concentration for half-maximal inhibition (IC50) under setting [1] was 59.9 nM. `N#CC[C@H](NC(=O)OCc1ccccc1)C(=O)N[C@@H](Cc1ccccc1)[C@@H]1O[C@@H]1[C@H](Cc1ccccc1)NC(=O)[C@H](CC#N)NC(=O)OCc1ccccc1` [Example 6, 1,6-Diphenyl-2(S),5(S)-di[N-[2(S)-N(benzyloxycarbonyl)amino-3-cyanopropanoyl]amino]-3,4-cis-epoxyhexane]: the IC50 under setting [2] is 880 nM. With `O=C(N[C@@H](Cn1cccn1)C(=O)N[C@@H](Cc1ccccc1)[C@@H]1O[C@@H]1[C@H](Cc1ccccc1)NC(=O)[C@H](Cn1cccn1)NC(=O)OCc1ccccc1)OCc1ccccc1` [Example 7, 1,6-Diphenyl-2(S),5(S)-di[N-[2(S)-N(benzyloxycarbonyl)amino-3-pyrazol-1-ylpropanoyl]amino]3,4-cis-epoxyhexane], the half-inhibitory concentration (IC50) under setting [2] is 8260 nM. For the compound `CC(C)[C@H](NC(=O)OCc1ccccn1)C(=O)N[C@@H](Cc1ccccc1)[C@@H]1O[C@@H]1[C@H](Cc1ccccc1)NC(=O)[C@@H](NC(=O)OCc1ccccn1)C(C)C` [Example 8, 1,6-Diphenyl-2(S),5(S)-di[N-[2(S)-N(pyrid-2-ylmethoxycarbonyl)amino-3-methylbutanoyl]amino]-3,4-cis-epoxyhexane], the half-maximal inhibitory concentration (IC50) under setting [1] is 349 nM. Consider `O=C(N[C@@H](Cc1c[nH]cn1)C(=O)N[C@@H](Cc1ccccc1)[C@@H]1O[C@@H]1[C@H](Cc1ccccc1)NC(=O)[C@H](Cc1c[nH]cn1)NC(=O)OCc1ccccc1)OCc1ccccc1` [Example 9, 1,6-Diphenyl-2(S),5(S)-di[N-[2(S)-N(benzyloxycarbonyl)amino-3-imidazol-4-yl-propanoyl]amino]-3,4-cis-epoxyhexane], for which the IC50 under setting [2] was 84.2 nM.

On to `CC[C@H](NC(=O)OCc1ccc2ccccc2n1)C(=O)N[C@@H](Cc1ccccc1)[C@@H]1O[C@@H]1[C@H](Cc1ccccc1)NC(=O)[C@H](CC)NC(=O)OCc1ccc2ccccc2n1` [Example 10, 1,6-Diphenyl-2(S),5(S)-di[N-[2(S)-N[(quinolin-2-ylmethoxy)carbonyl]aminobutanoyl]amino]-3,4-cis-epoxyhexane], for which the IC50 under setting [2] was 2.19 nM. In the case of `CSC[C@@H](NC(=O)OCc1ccccc1)C(=O)N[C@@H](Cc1ccccc1)[C@@H]1O[C@@H]1[C@H](Cc1ccccc1)NC(=O)[C@@H](CSC)NC(=O)OCc1ccccc1` [Example 11, 1,6-Diphenyl-2(S),5(S)-di[N-[2(S)-N(benzyloxycarbonyl)amino-3-methylthiopropanoyl]amino]-3,4-cis-epoxyhexane], the IC50 (* average IC50, 16 h incubation at room temperature, MES-ALB buffer pH 5.5, normalized to a positive control, read-out: Fluorescence Assay average IC50 (marked *) (converted)) is 248 nM. `NC(=O)CC[C@H](NC(=O)OCc1ccccc1)C(=O)N[C@@H](Cc1ccccc1)[C@@H]1O[C@@H]1[C@H](Cc1ccccc1)NC(=O)[C@H](CCC(N)=O)NC(=O)OCc1ccccc1` [Example 12, 1,6-Diphenyl-2(S),5(S)-di[N-[2(S)-N(benzyloxycarbonyl)amino-4-carbamoylbutanoyl]amino]-3,4-cis-epoxyhexane]: the IC50 under setting [2] was 1730 nM.

`CC(C)C[C@H](NC(=O)OCc1ccccn1)C(=O)N[C@@H](Cc1ccccc1)[C@@H]1O[C@@H]1[C@H](Cc1ccccc1)NC(=O)[C@H](CC(C)C)NC(=O)OCc1ccccn1` [Example 13, 1,6-Diphenyl-2(S),5(S)-di[N-[2(S)-N(pyrid-2-ylmethoxycarbonyl)amino-4-methylpentanoyl]amino]-3,4-cis-epoxyhexane]: the concentration for half-maximal inhibition (IC50) under setting [2] was 2880 nM. On to `CC[C@H](C)[C@H](NC(=O)OCc1ccccc1)C(=O)N[C@@H](Cc1ccccc1)[C@@H]1O[C@@H]1[C@H](Cc1ccccc1)NC(=O)[C@@H](NC(=O)OCc1ccccc1)[C@@H](C)CC` [Example 14], for which, for the setting “16 h incubation at room temperature, MES-ALB buffer pH 5.5, normalized to a positive control, read-out: Fluorescence Assay IC50 (converted)”, the half-maximal inhibitory concentration (IC50) is 236 nM. Consider `CC[C@H](C)[C@H](NC(=O)OCc1ccc2ccccc2n1)C(=O)N[C@@H](Cc1ccccc1)[C@@H]1O[C@@H]1[C@H](Cc1ccccc1)NC(=O)[C@@H](NC(=O)OCc1ccc2ccccc2n1)[C@@H](C)CC` [Example 15, 1,6-Diphenyl-2(S),5(S)-di[N-[2(S)-N[(quinolin-2-ylmethoxy)carbonyl]amino-3(S)-methylpentanoyl]amino]-3,4-cis-epoxyhexane], for which the IC50 under setting [2] is 27.3 nM. For `CC(C)[C@H](NC(=O)N(C)CCc1ccccn1)C(=O)N[C@@H](Cc1ccccc1)[C@@H]1O[C@@H]1[C@H](Cc1ccccc1)NC(=O)[C@@H](NC(=O)N(C)CCc1ccccn1)C(C)C` [Example 16, 1,6-Diphenyl-2(S),5(S)-di[N-[2(S)-N-[[N(methyl)-N(pyrid-2-ylethyl)amino]carbonyl]amino-3-methylbutanoyl]amino]-3,4-cis-epoxyhexane], the inhibition at 1 µg/mL (at 1000 ng/ml, read-out: Fluorescence Assay, given as ICxx (1000): xx is the percent inhibition) was found to be 32%. With `CC(C)[C@H](NC(=O)OCc1ccc2cccc(F)c2n1)C(=O)N[C@@H](Cc1ccccc1)[C@@H]1O[C@@H]1[C@H](Cc1ccccc1)NC(=O)[C@@H](NC(=O)OCc1ccc2cccc(F)c2n1)C(C)C` [Example 17, 1,6-Diphenyl-2(S),5(S)-di[N-[2(S)-N[(8-fluoroquinolin-2-ylmethoxy)carbonyl]amino-3-methylbutanoyl]amino]-3,4-cis-epoxyhexane], under setting [1], the concentration for half-maximal inhibition (IC50) was 23.1 nM. As to `CC[C@H](NC(=O)N(C)Cc1ccc2ccccc2n1)C(=O)N[C@@H](Cc1ccccc1)[C@@H]1O[C@@H]1[C@H](Cc1ccccc1)NC(=O)[C@H](CC)NC(=O)N(C)Cc1ccc2ccccc2n1` [Example 18, 1,6-Diphenyl-2(S),5(S)-di[N-[2(S)-N-[[N(methyl)-N(quinolin-2-ylmethyl)amino]carbonyl]aminobutanoyl]amino]-3,4-cis-epoxyhexane], under setting [1], the IC50 was 8.36 nM. Same read-out and setting: the same measure for `CC[C@H](C)[C@H](NC(=O)N(C)Cc1ccc2ccccc2n1)C(=O)N[C@@H](Cc1ccccc1)[C@@H]1O[C@@H]1[C@H](Cc1ccccc1)NC(=O)[C@@H](NC(=O)N(C)Cc1ccc2ccccc2n1)[C@@H](C)CC` [Example 19, 1,6-Diphenyl-2(S),5(S)-di[N-[2(S)-N[[N(methyl)-N(quinolin-2-ylmethyl)amino]carbonyl]amino-3(S)methylpentanoyl]amino]-3,4-cis-epoxyhexane]: 166 nM.
